In ChEMBL document CHEMBL3217575, “Design, synthesis and molecular modelling of novel methyl[4-oxo-2-(aroylimino)-3-(substituted phenyl)thiazolidin-5-ylidene]acetates as potent and selective aldose reductase inhibitors” (Medchemcomm, 2012):

Key:
Bos taurus [1] = organism: Bos taurus; test: Inhibition of purified calf kidney ALR1 at 0.6 mM preincubated for 10 mins by UV spectrophotometry; format: tissue-based
[2] = Inhibition of purified calf eye lens ALR2 preincubated for 10 mins by UV spectrophotometry; format: tissue-based, Bos taurus, Lens of camera-type eye
Bos taurus [3] = organism: Bos taurus; test: Inhibition of purified calf eye lens ALR2 at 0.6 mM preincubated for 10 mins by UV spectrophotometry; format: tissue-based; settings: Lens of camera-type eye
[4] = Inhibition of purified calf kidney ALR1 preincubated for 10 mins by UV spectrophotometry; format: tissue-based, Bos taurus

Row | IC50 [2] | SMILES | inhibition (Bos taurus [1]) | inhibition (Bos taurus [3]) | IC50 [4]
1 | 5.21 µM | COC(=O)/C=C1/S/C(=N\C(=O)c2ccccc2Cl)N(c2ccccc2)C1=O | 19.2% | – | –
2 | 3.14 µM | O=C1NC(=O)[C@@]2(CCOc3ccc(F)cc32)N1 [SORBINIL] | – | – | –
3 | 4.52 µM | COC(=O)/C=C1/S/C(=N\C(=O)c2cccc(C)c2)N(c2cccc(Cl)c2)C1=O | 42.6% | – | –
4 | 2.54 µM | COC(=O)/C=C1/S/C(=N\C(=O)c2ccccc2Br)N(c2ccc(Cl)cc2Cl)C1=O | 72.7% | – | –
5 | 9.42 µM | COC(=O)/C=C1/S/C(=N\C(=O)c2ccccc2Br)N(c2cccc(Cl)c2Cl)C1=O | 51.4% | – | –
6 | – | COC(=O)/C=C1/S/C(=N\C(=O)c2ccc(C)cc2)N(c2cccc(Cl)c2)C1=O | 43.5% | 44.3% | –
7 | – | COC(=O)/C=C1/S/C(=N\C(=O)c2ccccc2C)N(c2cccc(OC)c2)C1=O | 27.8% | 43.8% | –
8 | 3.19 µM | COC(=O)/C=C1/S/C(=N\C(=O)c2ccccc2)N(c2cccc3ccccc23)C1=O | 44.3% | – | –
9 | 12.4 µM | COC(=O)/C=C1/S/C(=N\C(=O)c2ccc(Cl)cc2)N(c2cccc(Cl)c2Cl)C1=O | 15.3% | – | –
10 | 2.82 µM | COC(=O)/C=C1/S/C(=N\C(=O)c2ccccc2)N(c2ccccc2OC)C1=O | 41.2% | – | –
11 | – | COC(=O)/C=C1/S/C(=N\C(=O)c2ccc([N+](=O)[O-])cc2)N(c2ccc(F)c(Cl)c2)C1=O | 38.4% | 47.7% | –
12 | 5.12 µM | COC(=O)/C=C1/S/C(=N\C(=O)c2ccc3ccccc3c2)N(c2ccccc2)C1=O | 49.1% | – | –
13 | 9.75 µM | COC(=O)/C=C1/S/C(=N\C(=O)c2cccc(C)c2)N(c2ccccc2)C1=O | 31.5% | – | –
14 | – | CCCC(CCC)C(=O)O [VALPROIC ACID] | – | – | 57.4 µM
15 | 36.1 µM | COC(=O)/C=C1/S/C(=N\C(=O)c2ccc([N+](=O)[O-])cc2)N(c2ccccc2F)C1=O | 49.5% | – | –
16 | 6.26 µM | COC(=O)/C=C1/S/C(=N\C(=O)c2cccc(C)c2)N(c2ccccc2OC)C1=O | 32.4% | – | –
